Legend:
[1] = test system: HeLa cells; assay: Mitochondrial membrane potential (TMRE, flow cytometry); format: cell-based, human; settings: 10× IC50, 1 h, vs untreated control
Procedure: Figure 4 Changes in the mitochondrial membrane potential Δψm in HeLa cells. The cells were treated with Pt compounds at the concentrations corresponding to 10× IC50 for 1 h and subsequently stained with TMRE. The fluorescence was measured by flow cytometry. Data represents mean ± SD from three independent experiments, *p < 0.01.
HeLa cells were seeded (6-well plates, 3 × 10^5 cells/well), grown overnight, and then treated with the tested compounds for 1 h. The medium was removed, and a fresh medium containing TMRE (Thermo Fisher Scientific) at a final concentration of […] in 500 μL was added. The cells were incubated for 30 min at 37 °C and then harvested using trypsin. TMRE fluorescence was measured with a fluorescence-activated cell sorting (FACS) Verse flow cytometer (Becton Dickinson), and the data were analyzed using the ModFit LT 4.1 (Verity Software House) software. The experiment was performed in triplicate.

[2] = test system: HeLa cells; assay: Cellular accumulation of platinum (ICP-MS); format: cell-based, human; settings: for cellular uptake 0.1 μM/24 h: 0.1 μM complex; for cellular uptake 1 μM/6 h: 1 μM complex; for cellular uptake 10 μM/6 h: 10 μM complex; for cellular uptake relative to Pt(IV) complex 2: Table 3
Procedure: Briefly, 3 × 10^6 cells were seeded in 100 mm culture dishes and grown overnight. The cells were exposed to the tested complexes at indicated concentrations for indicated periods. […] The pellets were digested using the microwave acid (HCl) digestion system (CEM Mars). The platinum quantity taken up by the cells was determined by inductively coupled plasma mass spectrometry (ICP–MS). All experiments were performed in triplicate.

[3] = test system: COX in HeLa cells; assay: COX activity assay (kit) in treated cells; format: cell-based, human; settings: 24 h, 1× IC50,72h, vs untreated control
Procedure: The results are expressed relative to the COX activity of untreated control.
HeLa cells were seeded in 6-well plates at a density of 10^5 cells/well and incubated overnight. The cells were treated with the tested compounds at concentrations corresponding to 1× IC50. Following a 24 h treatment, the cells were lyzed with radioimmunoprecipitation assay (RIPA) buffer supplemented with proteinase inhibitors on ice for 10 min. The extracts were cleared with centrifugation (12,000g/5 min), and protein content was determined using Bradford assay. COX activity was determined with a COX Activity Assay Kit (Abcam). 6 μg of protein was used in the reaction. The experiment was set up according to the manufacturer’s instructions. The fluorescence (Ex/Em 535/587 nm) was read in a kinetic mode, and the COX inhibition was expressed as a percentage of the activity of the untreated control.

[4] = test system: HeLa; assay: MTT antiproliferative assay, 72 h; format: cell-based, human; settings: for increase of antiproliferative activity relative to Pt(IV) complex 2: IC50, Table 1; for IC50: MTT, 72 h incubation, mean ± SD, read-out: IC50 HeLa
[5] = test system: A2780cisR; assay: MTT antiproliferative assay, 72 h; format: cell-based, human; settings: MTT, 72 h incubation, mean ± SD; read-out: IC50 A2780cisR
[6] = test system: HCT-116; assay: MTT antiproliferative assay, 72 h; format: cell-based, human; settings: MTT, 72 h incubation, mean ± SD; read-out: IC50 HCT-116
[7] = test system: A2780; assay: MTT antiproliferative assay, 72 h; format: cell-based, human; settings: MTT, 72 h incubation, mean ± SD; read-out: IC50 A2780
[8] = test system: MCF-7; assay: MTT antiproliferative assay, 72 h; format: cell-based, human; settings: MTT, 72 h incubation, mean ± SD; read-out: IC50 MCF-7
[9] = test system: HeLa cells; assay: Lactate production; format: cell-based, human; settings: 6 h, 5× IC50, free DCF at concentrations 380–770 times higher
Procedure: Figure 3 (A) Lactate production. Relative lactate concentration in medium following a 6 h treatment of HeLa cells with the investigated compounds at concentrations corresponding to 5× IC50. […] Data represents mean ± SD, n = 2–4; asterisks indicate a statistically significant difference from the untreated control (*p < 0.01, **p < 0.005, ***, ***p < 0.001).
HeLa cells were seeded (1 × 10^5 cells/well) and grown in 12-well plates, treated with platinum agents, and diclofenac for 6 h. Lactate concentration in the culture medium was measured using a colorimetric Lactate Assay Kit (Sigma-Aldrich) following the manufacturer’s instructions. […] The amount of lactate in individual samples was determined from a standard curve and expressed as a percentage of non-treated control.

[10] = Partition coefficient, shake-flask method; format: physicochemical; settings: octanol/water
Procedure: The “shake flask” method was used to measure the partition coefficients (P) of platinum compounds. The compounds were dissolved in octanol-saturated water (OSW) containing 200 mM NaCl. […] After careful separation of the layers with a fine-tip pipet, the Pt content in individual phases was determined by flameless atomic absorption spectrometry. The partition coefficients were calculated as the concentration ratio of the compound in the octanol layer to that in the aqueous layer, log P = log([Pt]WSO/[Pt]OSW).

[11] = test system: HeLa cells; assay: Wound healing assay; format: cell-based, human; settings: 24 h, multiples of IC50,72h
Procedure: Figure 7 (A–E) Wound healing assay. The monolayer of HeLa cells was scratched with a 10 μL tip, and a starving medium containing the tested complexes was added. The shots were taken at times 0 and 24 h. (A) Control, non-treated cells; (B) cells treated with complex 3; (C) cells treated with complex 4. […] (E) Evaluation of wound healing assay. Bars represent gap size vs. Control (100%), following a 24 h incubation with the investigated compounds. Light gray bars: complex 3; dark gray bars: complex 4; black bar: complex 2. (F) Re-adhesion assay. […] Following trypsinization, the cells were resuspended in Dulbecco’s modified Eagle medium (DMEM), counted, left to reconstitute adhesive membrane proteins for 30 min, and re-seeded at the density of 3× 10^4 cells/100 μL/well. After 30 min of incubation at 37 °C, the re-adhesion activity was determined as described in the Experimental Section. Data represents mean ± SD, n = 8; *p < 0.05, **p < 0.01, ***p < 0.001.
HeLa cells were grown close to confluence in 6-well plates in a complete medium, and then the medium was replaced with a serum-free medium [supplemented with 0.1% bovine serum albumin (BSA)], and the cells were incubated for an additional 24 h. The HeLa monolayers were scratched with a 10 μL pipet tip, and the cells were washed twice with PBS to remove peeled cells and treated with tested compounds at indicated concentrations. The scratched areas were shot immediately after the complex addition and then after 24 h with a Canon EOS 1200D camera attached to an Olympus CKX41 inverted microscope with a 10×/0.25 phase contrast objective. Digital images were taken by the QuickPHOTO MICRO 3.1 program (PROMICRA, Prague, Czech Republic) and processed with the TScratch analysis software (ETH Zürich, Switzerland). The cell’s ability to migrate into the open area was expressed as a percentage of control.

Row | SMILES | mitochondrial membrane potential Δψm (TMRE fluorescence) [1] | cellular uptake 0.1 μM/24 h [2] [ng Pt/10^6 cells] | cellular uptake 1 μM/6 h [2] [ng Pt/10^6 cells] | cellular uptake 10 μM/6 h [2] [ng Pt/10^6 cells] | cellular uptake relative to Pt(IV) complex 2 [2] | inhibition of COX activity [3] | increase of antiproliferative activity relative to Pt(IV) complex 2 [4] [fold] | IC50 [4] [nM] | IC50 [5] [nM] | IC50 [6] [nM] | IC50 [7] [nM] | IC50 [8] [nM] | lactate excreted into media [9] | log P [10] | migration activity (wound closing) [11]
1 | Cc1c(C)c2c3c4c1=CC=C[N]4[Pt][N]3C=CC=2.NCCNC(=O)Cc1ccccc1Nc1c(Cl)cccc1Cl.NCCNC(=O)Cc1ccccc1Nc1c(Cl)cccc1Cl.N[C@H]1CCCC[C@@H]1N [complex 4, Pt^IV56MeSS(DCF)2] | significant (p < 0.01) decrease in TMRE fluorescence | 3.9 ± 0.3 | 11 ± 2 | 82 ± 7 | 1.7–1.8 fold | slightly but significantly inhibited COX-2 activity | 9 | 310 ± 80 | 80 ± 20 | 180 ± 50 | 50 ± 10 | 330 ± 50 | considerably reduced | –1.4 ± 0.1 | reduced the ability of HeLa cells to close artificial wounds
2 | Cc1c(C)c2c3c4c1=CC=C[N]4[Pt]([Cl])[N]3C=CC=2.NCCNC(=O)Cc1ccccc1Nc1c(Cl)cccc1Cl.N[C@H]1CCCC[C@@H]1N [complex 3, Pt(IV)56MESSenDCFCl] | significant (p < 0.01) decrease in TMRE fluorescence | 3.6 ± 0.2 | 9.6 ± 0.8 | 61 ± 8 | 1.3–1.6 fold | slightly but significantly inhibited COX-2 activity | 4.5 | 600 ± 100 | 130 ± 20 | 200 ± 30 | 120 ± 20 | 400 ± 100 | considerably reduced | –1.7 ± 0.1 | reduced the ability of HeLa cells to close artificial wounds

From paper PMC10291556 (Journal of Medicinal Chemistry, 2023)
